# Data taken from the supplement of paper PMC10307832.
# Assays:
# Experiment in all cases: relative viability (nuclei count vs DMSO), 5 days (fraction); higher = more cells survive
# AZD1208 + Pemetrexed = compound: N[C@@H]1CCCN(c2c(/C=C3\SC(=O)NC3=O)cccc2-c2ccccc2)C1 [AZD1208] + Nc1nc2[nH]cc(CCc3ccc(C(=O)N[C@@H](CCC(=O)O)C(=O)O)cc3)c2c(=O)[nH]1 [Pemetrexed] (partner 0.2 µM)
# Method in brief: (§1)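 Lung cancer cell lines, seeded in 1536-well plates, were treated the following day by pin tool with a single drug or with five library-drug doses (not always all listed) in √10 steps on top of a fixed anchor-drug dose. Cells were fixed and nuclei stained in one step after 5 days, and nuclei were counted. Relative viability is the nuclei count for treated wells divided by that for vehicle wells, reported as medians of duplicate plates.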
# XMD14-99 + Linsitinib = compound: CN1CCN(CC1)C2=CC(=C(C=C2)NC3=NC(=C(S3)C(=O)C4=C(C=CC=C4Cl)Cl)N)OC [XMD14-99] + C[C@]1(O)C[C@@H](c2nc(-c3ccc4ccc(-c5ccccc5)nc4c3)c3c(N)nccn32)C1 [Linsitinib] (partner 1 µM)
# Method in brief: as §1
# AZD1208 + Crizotinib = compound: N[C@@H]1CCCN(c2c(/C=C3\SC(=O)NC3=O)cccc2-c2ccccc2)C1 [AZD1208] + C[C@@H](Oc1cc(-c2cnn(C3CCNCC3)c2)cnc1N)c1c(Cl)ccc(F)c1Cl [Crizotinib] (partner 1 µM)
# Method in brief: as §1
# AZD1208 + Olaparib = compound: N[C@@H]1CCCN(c2c(/C=C3\SC(=O)NC3=O)cccc2-c2ccccc2)C1 [AZD1208] + O=C(c1cc(Cc2n[nH]c(=O)c3ccccc23)ccc1F)N1CCN(C(=O)C2CC2)CC1 [Olaparib] (partner 8 µM)
# Method in brief: as §1
Cell Line,relative viability (AZD1208 + Pemetrexed; first compound 0.08 µM),relative viability (AZD1208 + Pemetrexed; first compound 0.253 µM),relative viability (AZD1208 + Pemetrexed; first compound 0.8 µM),relative viability (AZD1208 + Pemetrexed; first compound 2.53 µM),relative viability (AZD1208 + Pemetrexed; first compound 8 µM),relative viability (XMD14-99 + Linsitinib; first compound 0.08 µM),relative viability (XMD14-99 + Linsitinib; first compound 0.8 µM),relative viability (XMD14-99 + Linsitinib; first compound 2.53 µM),relative viability (XMD14-99 + Linsitinib; first compound 8 µM),relative viability (AZD1208 + Crizotinib; first compound 0.08 µM),relative viability (AZD1208 + Crizotinib; first compound 0.253 µM),relative viability (AZD1208 + Crizotinib; first compound 0.8 µM),relative viability (AZD1208 + Crizotinib; first compound 2.53 µM),relative viability (AZD1208 + Crizotinib; first compound 8 µM),relative viability (AZD1208 + Olaparib; first compound 0.08 µM),relative viability (AZD1208 + Olaparib; first compound 0.253 µM),relative viability (AZD1208 + Olaparib; first compound 0.8 µM),relative viability (AZD1208 + Olaparib; first compound 2.53 µM),relative viability (AZD1208 + Olaparib; first compound 8 µM)
201T,0.346,0.339,0.305,0.269,0.327,1.05,1.02,0.995,1,1,1.08,1.06,1.11,1.14,0.876,0.84,0.866,0.868,0.909
NCI-H520,0.685,0.703,0.555,0.524,0.446,1.08,0.972,1,0.657,0.77,0.833,0.711,0.582,0.439,0.357,0.278,0.271,0.287,0.252
HCC-15,0.215,0.214,0.225,0.237,0.213,0.91,0.902,0.826,0.702,0.849,0.788,0.707,0.752,0.641,0.664,0.718,0.66,0.636,0.613
LCLC-103H,0.453,0.46,0.51,0.43,0.477,0.909,1.13,1,0.973,1.03,1.11,1.05,1.31,1.03,0.774,0.798,0.811,0.81,0.786
NCI-H460,0.065,0.0614,0.0662,0.0615,0.055,0.685,0.77,0.61,0.331,0.912,1.17,0.854,0.709,0.871,0.474,0.43,0.407,0.431,0.443
EPLC-272H,0.353,0.422,0.376,0.342,0.406,1.14,1.21,1.4,1.02,0.93,1,0.792,0.849,0.726,0.647,0.773,0.906,0.687,0.656
